Experimental data: PMC12673918, “Design, Synthesis, and Selective Antiproliferative Activity of Indolizine Derivatives as Microtubule Destabilizers” (Archiv Der Pharmazie, 2025)
Read-outs that look alike come from different tables or passages of the source.

What was measured:
Format in all cases: cell-based
CAL‐27 (oral carcinoma) = assay: Resazurin cell viability assay, CAL‐27; conditions: 50 µM; for inhibition at 50 µM: Homo sapiens, CAL-27
Description: (§1) The tongue squamous cell carcinoma cell line CAL‐27 (ATCC CRL‐2095), breast carcinoma BT‐20 (ATCC HTB‐19), gastric carcinoma HGC‐27 (BCRJ Code 0310), and normal oral fibroblast OHMF (culture of fibroblasts derived from human oral healthy mucosa, approved by the Research Ethics Committee of the University of São Paulo, Campus of Ribeirão Preto, Brazil (with protocol number 049) were cultured in DMEM medium (DMEM, Sigma‐Aldrich, St. Louis, MO, USA) supplemented with 10% fetal bovine serum and a solution of penicillin (100 U/mL) and streptomycin (100 μg/mL). The cultures were maintained in a humidified incubator with 5% CO₂ at 37°C.
(§2) Cell viability was analyzed using the resazurin assay. For this, cells were seeded in 96‐well plates (1 × 10^3 cells per well) and incubated at 37°C with 5% CO₂ overnight for cell adhesion. Subsequently, the cells were treated with different compounds (0–50 µM) for 72 h. After treatment, the medium was replaced with phenol‐free DMEM medium (Sigma‐Aldrich) containing resazurin at a concentration of 44 µM (Sigma‐Aldrich). After incubation for 4 h at 37°C, fluorescence detection was performed (excitation 530/25 nm, emission 590/35 nm) using a microplate fluorimeter (Synergy 2, Biotek). Initial cell growth inhibition assays were performed in triplicate or quadruplicate, while IC50 determinations were conducted in triplicate. Data were plotted, and IC₅₀ values were determined by nonlinear regression using GraphPad Prism software 9.0.
(§3) ^a Cell viability was assessed using the resazurin assay after 72 hours of compound treatment. Fluorescence was measured to estimate % of cellular growth inhibition at 50 µM values, based on triplicate experiments.
(§4) ^b IC50 values were determined using the same resazurin-based assay, with fluorescence measurements performed after 72 hours of treatment. These experiments were carried out in triplicate.

[1] = test system: HGC‐27 (gastric carcinoma); assay: Resazurin cell viability assay, HGC‐27; conditions: 50 µM; for inhibition at 50 µM: Homo sapiens, HGC-27
Description: as §1, §2, §3, §4

BT‐20 (breast carcinoma) = assay: Resazurin cell viability assay, BT‐20; conditions: 50 µM; for inhibition at 50 µM: Homo sapiens, BT-20
Description: as §1, §2, §3, §4

human P2X7 receptor = target: T1, human P2X7 receptor (Homo sapiens, UniProt Q99572); assay: YO‐PRO‐1 dye uptake assay for the P2X7 receptor; conditions: for inhibition at 10 µM: P2X7, read-out: % Inhibition of P2X7R at 10 µM compounds’ concentration
T1 construct: host or cells: HEK-293
T1 sequence (Q99572 1-595): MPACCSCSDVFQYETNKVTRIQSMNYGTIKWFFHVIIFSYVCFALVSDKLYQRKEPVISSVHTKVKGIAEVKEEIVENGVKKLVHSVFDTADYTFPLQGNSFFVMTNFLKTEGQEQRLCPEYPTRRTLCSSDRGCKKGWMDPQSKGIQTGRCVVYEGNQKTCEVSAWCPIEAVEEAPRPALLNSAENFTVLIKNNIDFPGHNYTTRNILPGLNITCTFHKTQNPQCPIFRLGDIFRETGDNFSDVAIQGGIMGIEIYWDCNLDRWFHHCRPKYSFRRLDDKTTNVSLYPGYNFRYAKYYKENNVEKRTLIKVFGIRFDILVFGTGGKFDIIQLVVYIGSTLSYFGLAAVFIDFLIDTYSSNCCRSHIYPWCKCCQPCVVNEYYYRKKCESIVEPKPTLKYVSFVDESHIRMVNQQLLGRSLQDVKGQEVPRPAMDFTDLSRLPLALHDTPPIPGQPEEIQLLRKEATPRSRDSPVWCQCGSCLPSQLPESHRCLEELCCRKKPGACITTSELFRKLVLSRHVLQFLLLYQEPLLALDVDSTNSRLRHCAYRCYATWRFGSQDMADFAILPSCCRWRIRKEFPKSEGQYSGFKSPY
Description: HEK‐293 cell lines stably expressing human P2X7 receptor (hP2X7R‐HEK‐293, B'SYS GmbH, Witterswil, Switzerland) were maintained in a 50/50 mix of Dulbecco's Modified Eagle Medium and F12 medium (DMEM/F12) supplemented with 9% (v/v) FCS, 1% (v/v) Penicillin/Streptomycin (10000 I.U./mL, 10 mg/mL in 0.9% NaCl) and G418 (100 µg/mL) at 37°C and 5% CO2. Cells were subcultured in cell culture 75 cm^2 flasks and split every 2‐4 days (1:3; 1:6; 1:10) once confluent.
HEK‐293 cell lines stably expressing human P2X7 receptor were seeded into black‐walled Nunc 96‐well optical bottom plates (Thermo Fisher Scientific) at 2.0–4.0 × 10^4 cells/well and incubated at 37°C for 24–48 h. After removing the culture medium, cells were washed with 100 µL wash buffer (280 mM Sucrose; 5.6 mM KCl; 0.5 mM CaCl2; 10 mM D‐Glucose; 10 mM HEPES; 5 mM N‐Methyl‐D‐glucamine (pH 7.4)). Then, 50 µL assay buffer (280 mM Sucrose; 6.4 mM KCl, 10 mM D‐Glucose; 10 mM HEPES; 5.0 mM N‐Methyl‐D‐glucamine (pH 7.4)) and 50 µL of antagonist dilutions (10^–5–10^–9 M) in assay buffer were added, and the cells were incubated at 37°C for 30 min. […] Finally, the uptake of YO‐PRO‐1 dye was recorded in a 9‐point‐well scan by following the fluorescence change using a FlexStation 3 Multi‐Mode Microplate Reader (Molecular Devices, San Jose, CA, USA, Software SoftMax7 Pro, endpoint protocol, well scan with reading pattern “fill scan”, λ ex = 485 nm, λ em = 535 nm). To determine the concentration‐dependent uptake inhibition by antagonists, the YO‐PRO‐1 uptake, expressed as RFU, was plotted against the concentrations of the compounds.

human P2X4 receptor = target: T2, human P2X4 receptor (Homo sapiens, UniProt Q99571); assay: Ca2+‐flux assay for the hP2X4 receptor; conditions: read-out: % Inhibition of P2X4R at 10 µM compounds’ concentration
T2 construct: expressed in transfected cells; host or cells: human 1321N1 astrocytoma cells
T2 sequence (Q99571 1-388): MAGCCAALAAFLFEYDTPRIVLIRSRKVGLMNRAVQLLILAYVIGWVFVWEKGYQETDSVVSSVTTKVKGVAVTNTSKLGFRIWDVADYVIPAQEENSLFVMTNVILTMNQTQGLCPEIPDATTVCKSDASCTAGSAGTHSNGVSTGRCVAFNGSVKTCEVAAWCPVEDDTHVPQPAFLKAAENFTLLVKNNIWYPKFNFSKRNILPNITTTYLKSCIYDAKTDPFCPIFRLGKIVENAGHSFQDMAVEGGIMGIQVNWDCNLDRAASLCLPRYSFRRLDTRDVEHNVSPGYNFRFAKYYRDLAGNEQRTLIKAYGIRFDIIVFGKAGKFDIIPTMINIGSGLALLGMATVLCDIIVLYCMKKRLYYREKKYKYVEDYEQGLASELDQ
Description: Human 1321N1 astrocytoma cells stably expressing the human P2X4 receptor (generated in‐house) were cultured in Dulbecco's Modified Eagle Medium supplemented with 9% (v/v) FCS, 1% (v/v) Penicillin/Streptomycin (10000 I.U./mL, 10 mg/mL in 0.9% NaCl) and puromycin (1 µg/mL) as a selection antibiotic at 37°C and 5% CO2. Cells were subcultured in cell culture 75 cm^2 flasks and split every 2–4 days (1:5; 1:6) once confluent.
1321N1 cells stably expressing human P2X4 receptor were seeded into black‐walled 96‐well plates (Thermo Fisher Scientific) at 2.5 × 10^4 cells/well and incubated at 37°C for 24–48 h. All test compounds were diluted in assay buffer solution (SBS: 135 mM NaCl; 5 mM KCl; 1 mM MgCl2.6 H2O; 1.8 mM CaCl2; 5.6 mM D‐Glucose; 10 mM HEPES, 0.1% (m/v) BSA, 0.05% (m/v) gelatine, 2.3 mM probenecid). The culture medium was removed, and 100 µL of 4 μM fluorescent Ca^2+ indicator Calbryte520AM in SBS was added and incubated at 37°C for 1 h. The dye solution was then removed, 100 µL of SBS solution and 50 µL of antagonist dilutions (10^–5–10^–9 M) in SBS were added, and the cells were incubated at room temperature for an extra 30 min. Finally, 50 µL of ATP (at a concentration of the previously determined EC50‐ value) was added by using FlexStation 3 Multi‐Mode Microplate Reader (Molecular Devices, San Jose, CA, USA, Software SoftMax7 Pro). The changes in intracellular Ca^2+ ion concentrations were monitored over 200 s (20 s baseline) by measuring the fluorescence signal at λ ex = 494 nm and λ em = 516 nm ([…] cut‐off). The concentration‐dependent decrease in Ca^2+‐flux, expressed as RFU, was plotted against the concentrations of the compounds.

[2] = 72 hours, triplicate, read-out: % Cellular growth inhibition (at 50 µM) CAL-27 (supplement)
[3] = 72 hours, triplicate, read-out: % Cellular growth inhibition (at 50 µM) HGC-27 (supplement)
[4] = 72 hours, triplicate, read-out: % Cellular growth inhibition (at 50 µM) BT-20 (supplement)
[5] = 72 h, mean ± SD, n = 3, read-out: % Cellular growth inhibition (at 50 µM) CAL‐27
[6] = 72 h, mean ± SD, n = 3, read-out: % Cellular growth inhibition (at 50 µM) HGC‐27
[7] = 72 h, mean ± SD, n = 3, read-out: % Cellular growth inhibition (at 50 µM) BT‐20

Compound	inhibition at 50 µM (CAL‐27 (oral carcinoma); [5]) [%]	inhibition at 50 µM [1, 6] [%]	inhibition at 50 µM (BT‐20 (breast carcinoma); [7]) [%]	inhibition at 10 µM (human P2X7 receptor) [%]	inhibition at 10 µM (human P2X4 receptor) [%]	further results
O=C(Cc1ccccn1)c1ccc(Cl)cc1 [Compound 4b, 1‐(4‐chlorophenyl)‐2‐(pyridin‐2‐yl)ethanone]	–	–	–	–	–	inhibition at 50 µM (CAL‐27 (oral carcinoma); [2]): 11.4 ± 0.4%; inhibition at 50 µM [1, 3]: 16.1 ± 1.6%; inhibition at 50 µM (BT‐20 (breast carcinoma); [4]): 17.3 ± 1.8%
O=C(Cc1ccccn1)c1ccc(Cl)c(Cl)c1 [Compound 4e, 1‐(3,4‐dichlorophenyl)‐2‐(pyridin‐2‐yl)ethanone]	–	–	–	–	–	inhibition at 50 µM (CAL‐27 (oral carcinoma); [2]): 22.3 ± 1.3%; inhibition at 50 µM [1, 3]: 36.9 ± 0.8%; inhibition at 50 µM (BT‐20 (breast carcinoma); [4]): 43.3 ± 0.6%
COc1cc(C(=O)Cc2ccccn2)cc(OC)c1OC [Compound 4f, 2‐(pyridin‐2‐yl)‐1‐(3,4,5‐trimethoxyphenyl)ethenone]	20 ± 2.2	10 ± 0.7	19 ± 1.2	–	–	–
2‐(pyridin‐2‐yl)‐1‐(p‐tolyl)ethanone [Compound 4d]	–	–	–	–	–	% Cellular growth inhibition (at 50 µM) CAL-27 (supplement) (CAL‐27 (oral carcinoma); 72 hours, triplicate): 12.6 ± 1.2%; % Cellular growth inhibition (at 50 µM) HGC-27 (supplement) ([1]; 72 hours, triplicate): 17.3 ± 1.2%; % Cellular growth inhibition (at 50 µM) BT-20 (supplement) (BT‐20 (breast carcinoma); 72 hours, triplicate): 17.4 ± 0.6%
COc1ccc(CC(=O)c2cc(OC)c(OC)c(OC)c2)nc1 [Compound 5f, 2‐(5‐methoxypyridin‐2‐yl)‐1‐(3,4,5‐trimethoxyphenyl)ethenone]	67 ± 2.7	48 ± 4.9	52 ± 4.2	5	4	–
COc1ccc2c(C(=O)c3cc(OC)c(OC)c(OC)c3)c(-c3ccccc3)cn2c1 [Compound 8f, (6‐methoxy‐2‐phenylindolizin‐1‐yl)(3,4,5‐trimethoxyphenyl)methanone]	69 ± 0.4	49 ± 4	55 ± 1.8	5	4	–
COc1cc(C(=O)c2ccn3ccccc23)cc(OC)c1OC [Compound 6f, (Indolizin‐1‐yl)(3,4,5‐Trimethoxyphenyl)Methanone]	57 ± 0.9	38 ± 1.6	43 ± 0.5	–	–	–
COc1ccc(C(=O)c2ccn3cc(OC)ccc23)cc1 [Compound 7d, (6‐methoxyindolizin‐1‐yl)(4‐methoxyphenyl)methanone]	15 ± 1.1	1 ± 1	7 ± 0.9	2	8	–
COc1ccc2c(C(=O)c3cc(OC)c(OC)c(OC)c3)c(-c3ccccn3)cn2c1 [Compound 8g, [6‐methoxy‐2‐(pyridin‐2‐yl)indolizin‐1‐yl](3,4,5‐trimethoxyphenyl)methanone]	68 ± 1	44 ± 0.4	54 ± 2.8	1	-8	–
COc1ccc2c(C(=O)c3ccc(C)cc3)ccn2c1 [Compound 7c, (6‐methoxyindolizin‐1‐yl)(p‐tolyl)methanone]	20 ± 0.7	13 ± 0.7	15 ± 0.5	-9	-2	–
O=C(c1ccccc1)c1ccn2ccccc12 [Compound 6a, (Indolizin‐1‐yl)(phenyl)methanone]	15 ± 0.8	20 ± 1.1	26 ± 1	–	–	–
O=C(NCC12CC3CC(CC(C3)C1)C2)c1cc(CCCNCCCO)ccc1Cl [AZD9056, reference compound]	–	–	–	–	–	IC50 (human P2X7 receptor; reference compound, same conditions, read-out: pIC50 at P2X7R (converted)): 10.5 nM
1‐(4‐methoxyphenyl)‐2‐(pyridin‐2‐yl)ethanone [Compound 4c]	–	–	–	–	–	% Cellular growth inhibition (at 50 µM) CAL-27 (supplement) (CAL‐27 (oral carcinoma); 72 hours, triplicate): 9.0 ± 0.8%; % Cellular growth inhibition (at 50 µM) HGC-27 (supplement) ([1]; 72 hours, triplicate): 14.1 ± 1.8%; % Cellular growth inhibition (at 50 µM) BT-20 (supplement) (BT‐20 (breast carcinoma); 72 hours, triplicate): 13.7 ± 0.7%
O=C(Cc1ccccn1)c1ccccc1 [Compound 4a, 1‐phenyl‐2‐(pyridin‐2‐yl)ethanone]	–	–	–	–	–	inhibition at 50 µM (CAL‐27 (oral carcinoma); [2]): 12.2 ± 2%; inhibition at 50 µM [1, 3]: 2.4 ± 0.9%; inhibition at 50 µM (BT‐20 (breast carcinoma); [4]): 7.5 ± 0.5%
